Like-named read-outs stand apart in the source and are kept apart here.
Assay: Clinical study of single oral doses of 5-azacytidine (oral formulation of Example 3): PK, bioavailability, safety
Format: in vivo, human
Conditions: for bioavailability: oral, SC reference dose = 135 mg, AUC = 777 ng · h/mL, read-out: F, percent bioavailability compared with historical SC azacitidine data
Description: The study was a multicenter, open-label, single treatment study. Patients were treated with escalating doses, in 20 mg increments, up to 200 mg. The study assessed the safety and tolerability of escalating doses, provided pilot information on the oral bioavailability of the study drug, and provided information on the single dose pharmacokinetics of the study drug after oral administration.
Multicenter, open-label, single-treatment, escalating-dose PK study. […] Single subject cohorts were used for each dose escalation. Subsequent subjects were to be treated at escalating doses, up to 200 mg, in 20 mg increments. Dose escalation was to continue until 1 of the following conditions was reached: • a.
If no safety concerns were identified and no Grade 3 or 4 AEs occurred in these subjects, dose escalation was to continue. […] Serial blood samples for plasma PK analyses were drawn before, and at the following time points after, dosing: 0.5, 1, 1.5, 2, 2.5, 3, 3.5, 4, 4.5, 5, 5.5, 6, 6.5, 7, 8 hours, and 12 hours (if possible). […] PK parameters calculated from plasma concentrations included (but were not limited to) Cmax, Tmax, t1/2, and AUC(0−∞).

[1] = 1 subject, 60 mg single oral dose
[2] = 1 subject, 80 mg single oral dose
[3] = all 4 subjects, 60 or 80 mg single oral dose
[4] = human, plasma, po, 60 mg, Subject 101, 60 mg single oral dose (Example 3 tablets)
[5] = human, plasma, po, 60 mg, Subject 101, 60 mg single oral dose (Example 3 tablets), read-out: Plasma concentration
[6] = human, plasma, po, 80 mg, Mean (n = 3), 80 mg single oral dose (Example 3 tablets)
[7] = human, plasma, po, 80 mg, Mean of 80 mg dose group (n=3), single oral dose (Example 3 tablets), read-out: Mean plasma concentration
[8] = human, plasma, po, 80 mg, Subject 102, 80 mg single oral dose (Example 3 tablets)
[9] = human, plasma, po, 80 mg, Subject 102, 80 mg single oral dose (Example 3 tablets), read-out: Plasma concentration
[10] = human, plasma, po, 80 mg, Subject 201, 80 mg single oral dose (Example 3 tablets)
[11] = human, plasma, po, 80 mg, Subject 201, 80 mg single oral dose (Example 3 tablets), read-out: Plasma concentration
[12] = human, plasma, po, 80 mg, Subject 202, 80 mg single oral dose (Example 3 tablets)
[13] = human, plasma, po, 80 mg, Subject 202, 80 mg single oral dose (Example 3 tablets), read-out: Plasma concentration

Structure (SMILES): Nc1ncn([C@@H]2O[C@H](CO)[C@@H](O)[C@H]2O)c(=O)n1 [5-azacytidine, 4-amino-1-β-D-ribofuranosyl-1,3,5-triazin-2(1H)-one]
- Plasma samples with quantifiable 5-azacytidine [1]: 2 samples
- Tolerability [1]: well tolerated
- Consecutive plasma samples with detectable 5-azacytidine [2]: 4 consecutive samples
- Tolerability [2]: well tolerated
- Mean plasma concentration (Mean of 80 mg dose group (n=3), single oral dose (Example 3 tablets), 4.0 h): BLQ
- Mean plasma concentration (Mean of 80 mg dose group (n=3), single oral dose (Example 3 tablets), 4.5 h): BLQ
- Mean plasma concentration (Mean of 80 mg dose group (n=3), single oral dose (Example 3 tablets), 5.0 h): BLQ
- Plasma concentration (Subject 101, 60 mg single oral dose (Example 3 tablets), 0.5 h): BLQ
- Plasma concentration (Subject 101, 60 mg single oral dose (Example 3 tablets), 4.5 h): BLQ
- Plasma concentration (Subject 101, 60 mg single oral dose (Example 3 tablets), 5.0 h): BLQ
- Plasma concentration (Subject 102, 80 mg single oral dose (Example 3 tablets), 0.5 h): BLQ
- Plasma concentration (Subject 102, 80 mg single oral dose (Example 3 tablets), 3.5 h): BLQ
- Plasma concentration (Subject 102, 80 mg single oral dose (Example 3 tablets), 4.0 h): BLQ
- Plasma concentration (Subject 102, 80 mg single oral dose (Example 3 tablets), 4.5 h): BLQ
- Plasma concentration (Subject 102, 80 mg single oral dose (Example 3 tablets), 5.0 h): BLQ
- Plasma concentration (Subject 201, 80 mg single oral dose (Example 3 tablets), 0.5 h): BLQ
- Plasma concentration (Subject 201, 80 mg single oral dose (Example 3 tablets), 5.0 h): BLQ
- Plasma concentration (Subject 202, 80 mg single oral dose (Example 3 tablets), 4.0 h): BLQ
- Plasma concentration (Subject 202, 80 mg single oral dose (Example 3 tablets), 4.5 h): BLQ
- Plasma concentration (Subject 202, 80 mg single oral dose (Example 3 tablets), 5.0 h): BLQ
- Grade of AEs possibly related to study drug [3]: Grade 2
- Study-drug-related SAEs [3]: No study-drug-related SAEs
- bioavailability (human, plasma, 60 mg, Subject 101, 60 mg single oral dose): 6.7%
- bioavailability (human, plasma, 80 mg, Mean (n = 3), 80 mg single oral dose): 18%
- bioavailability (human, plasma, 80 mg, Subject 102, 80 mg single oral dose): 6.3%
- bioavailability (human, plasma, 80 mg, Subject 201, 80 mg single oral dose): 24%
- bioavailability (human, plasma, 80 mg, Subject 202, 80 mg single oral dose): 22%
- AUC(0-inf) [4]: 22.6 ng·h/mL
- Cmax [4]: 15.8 ng/mL
- Tmax [4]: 3 h
- concentration at 0 h [5]: 0 ng/mL
- concentration at 1 h [5]: 3.72 ng/mL
- concentration at 1.5 h [5]: 4.56 ng/mL
- concentration at 2 h [5]: 3.75 ng/mL
- concentration at 3 h [5]: 15.8 ng/mL
- concentration at 3.5 h (human, plasma, po, 60 mg, Subject 101, 60 mg single oral dose (Example 3 tablets), 3.5 h, read-out: Plasma concentration): 4.27 ng/mL
- concentration at 4 h (human, plasma, po, 60 mg, Subject 101, 60 mg single oral dose (Example 3 tablets), 4.0 h): 1.55 ng/mL
- AUC(0-inf) [6]: 81.5 ng·h/mL
- Cmax [6]: 53.2 ng/mL
- Tmax [6]: 1.5 h
- half-life [6]: 0.361 h
- concentration at 0 h [7]: 0 ng/mL
- concentration at 0.5 h (human, plasma, po, 80 mg, Mean of 80 mg dose group (n=3), single oral dose (Example 3 tablets), 0.5 h, read-out: Mean plasma concentration): 1.49 ng/mL
- concentration at 1 h [7]: 46.6 ng/mL
- concentration at 1.5 h [7]: 53.2 ng/mL
- concentration at 2 h [7]: 36.9 ng/mL
- concentration at 2.5 h [7]: 17.5 ng/mL
- concentration at 3 h [7]: 6.3 ng/mL
- concentration at 3.5 h (human, plasma, po, 80 mg, Mean of 80 mg dose group (n=3), single oral dose (Example 3 tablets), 3.5 h, read-out: Mean plasma concentration): 2.57 ng/mL
- AUC(0-inf) [8]: 28.6 ng·h/mL
- Cmax [8]: 34.3 ng/mL
- Tmax [8]: 1.5 h
- half-life [8]: 0.336 h
- concentration at 0 h [9]: 0 ng/mL
- concentration at 1 h [9]: 9.25 ng/mL
- concentration at 1.5 h [9]: 34.3 ng/mL
- concentration at 2 h [9]: 11 ng/mL
- concentration at 2.5 h [9]: 3.61 ng/mL
- concentration at 3 h [9]: 1.4 ng/mL
- AUC(0-inf) [10]: 111 ng·h/mL
- Cmax [10]: 75.1 ng/mL
- Tmax [10]: 2 h
- half-life [10]: 0.416 h
- concentration at 0 h [11]: 0 ng/mL
- concentration at 1 h [11]: 31.5 ng/mL
- concentration at 1.5 h [11]: 58.5 ng/mL
- concentration at 2 h [11]: 75.1 ng/mL
- concentration at 2.5 h [11]: 36.4 ng/mL
- concentration at 3 h [11]: 14.1 ng/mL
- concentration at 3.5 h (human, plasma, po, 80 mg, Subject 201, 80 mg single oral dose (Example 3 tablets), 3.5 h, read-out: Plasma concentration): 6.1 ng/mL
- concentration at 4 h (human, plasma, po, 80 mg, Subject 201, 80 mg single oral dose (Example 3 tablets), 4.0 h): 2.43 ng/mL
- concentration at 4.5 h (human, plasma, po, 80 mg, Subject 201, 80 mg single oral dose (Example 3 tablets), 4.5 h): 1.19 ng/mL
- AUC(0-inf) [12]: 103 ng·h/mL
- Cmax [12]: 99.1 ng/mL
- Tmax [12]: 1 h
- half-life [12]: 0.366 h
- concentration at 0 h [13]: 0 ng/mL
- concentration at 0.5 h (human, plasma, po, 80 mg, Subject 202, 80 mg single oral dose (Example 3 tablets), 0.5 h, read-out: Plasma concentration): 4.46 ng/mL
- concentration at 1 h [13]: 99.1 ng/mL
- concentration at 1.5 h [13]: 66.7 ng/mL
- concentration at 2 h [13]: 24.5 ng/mL
- concentration at 2.5 h [13]: 12.5 ng/mL
- concentration at 3 h [13]: 3.41 ng/mL
- concentration at 3.5 h (human, plasma, po, 80 mg, Subject 202, 80 mg single oral dose (Example 3 tablets), 3.5 h, read-out: Plasma concentration): 1.61 ng/mL
- Tmax (human, plasma, po, 80 mg, individual subjects who received an 80 mg oral dose (three values), post-dose): 1.5 h
- Cmax increase versus the 60 mg dose (mean 80 mg oral dose): 3.5 fold
- Time at which concentrations were below the level of quantitation (mean 80 mg oral dose): 4.0 h
- Apparent oral bioavailability (oral formulation of Example 3): acceptable for therapeutic treatment
